The source of these data is ChEMBL document CHEMBL1201862, “PubChem BioAssay data set” (2004).

The structures appear in SMILES notation.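 Exposure lasted 48 hours, with cells grown in 96-well plates and compounds tested at five concentrations. Here, GI50 denotes the concentration required for 50% inhibition of growth.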 The source made the active and inactive calls. Cut-off read from the data, not from the text of the source: active = GI50 up to about 1.1 µM and inactive = higher. Some results are limits rather than exact numbers.

Common to all, as to assay: NCI anticancer screen, dose series, 48 h
The test system of assay [1] is A549.
Assay [2] concerns ACHN.
In assay [3] the test system is HL-60.
Assay [4] concerns HOP-62.
In assay [5] the test system is HOP-92.
For assay [6], the system named is IGROV-1.
The subject of assay [7] is KM12.
Assay [8] relates to LOX IMVI.
Assay [9] concerns MDA-MB-231.
In assay [10] the test system is MDA-MB-435.
Assay [11] deals with MDA-N.
The test system of assay [12] is Malme-3M.
Assay [13] concerns NCI-H23.
In assay [14] the test system is OVCAR-5.
In assay [15] the test system is RPMI-8226.
The subject of assay [16] is SK-MEL-28.
The test system of assay [17] is SNB-75.
The subject of assay [18] is U-251.
The test system of assay [19] is UACC-257.

With `COc1ccc(/C=C2\N/C(=N\N=C/C(O)C(O)C(O)C(O)CO)NC2=O)cc1` (stereo not given), the GI50 was > 100 µM (inactive) in assay [1]; 32.2 µM (inactive) in assay [2]; > 100 µM (inactive) in [3]; 24.9 µM (inactive) in assay [4]; 16.1 µM (inactive) in assay [5]; 73.6 µM (inactive) in assay [6]. The GI50 in assay [7] is 30 µM (inactive); in assay [8], 65.3 µM (inactive); in assay [9], 32.7 µM (inactive); in [10] it was 26.2 µM (inactive); in assay [11], 20.1 µM (inactive); in assay [12], 23.1 µM (inactive). The GI50 was 23.6 µM (inactive) in assay [13]; > 100 µM (inactive) in [14]; > 100 µM (inactive) in assay [15]; 44 µM (inactive) in assay [16]; 22.1 µM (inactive) in assay [17]; 20.7 µM (inactive) in assay [18]. Besides, the GI50 in assay [19] is 30.1 µM (inactive).
`O=c1[nH]c2cc(C(F)(F)F)ccc2nc1CBr`: the GI50 was 11 µM (inactive) in [1]; 7.19 µM (inactive) in assay [2]; 2.69 µM (inactive) in assay [3]; 8.05 µM (inactive) in assay [4]; 2.79 µM (inactive) in assay [5]; 10.6 µM (inactive) in [6]. In addition, the GI50 is 14.9 µM (inactive) in assay [7]; 1.82 µM (inactive) in assay [8]; 13.5 µM (inactive) in assay [9]; 11.4 µM (inactive) in assay [10]; 12 µM (inactive) in assay [11]; 14 µM (inactive) in [12]. Moreover, the GI50 was 15.4 µM (inactive) in [13]; 14.1 µM (inactive) in [14]; 5.97 µM (inactive) in [15]; 15.1 µM (inactive) in assay [16]; 16.6 µM (inactive) in [17]; 9.48 µM (inactive) in [18]. The GI50 in assay [19] is 14.7 µM (inactive).
Take `CC1=CC[C@H](C(C)C)C(C(O)[C@@H](C)O[Si](c2ccccc2)(c2ccccc2)C(C)(C)C)C1=O` (stereo not given in full): the GI50 in assay [1] was 14.7 µM (inactive); in [2], 15.6 µM (inactive); in [3], 16.9 µM (inactive); in assay [4] it was 20.9 µM (inactive); in [5], 20.8 µM (inactive); in [6] it was 24.2 µM (inactive). For the same compound, the GI50 is 18.5 µM (inactive) in assay [7]; 21.8 µM (inactive) in assay [8]; 15.5 µM (inactive) in [9]; 21.4 µM (inactive) in assay [10]; 21.2 µM (inactive) in assay [11]; 28.8 µM (inactive) in [12]. Also, the GI50 was 16.6 µM (inactive) in [13]; 18.9 µM (inactive) in [14]; 9.73 µM (inactive) in [15]; 32.3 µM (inactive) in assay [16]; 23 µM (inactive) in assay [17]; 15.8 µM (inactive) in assay [18]. The GI50 in assay [19] is 12.1 µM (inactive).
Regarding `CC(=O)O[C@H]1C[C@H]2[C@@H](OC(C)=O)/C=C3\C[C@](C)(C(=O)[C@H](O)C(=C1C)C2(C)C)[C@@H](O)C[C@@H]3OC(=O)[C@H](O)[C@H](c1ccccc1)N(C)C`, the GI50 in assay [1], in [2], in assay [3], in [4], in assay [5] and in assay [6] was > 100 µM (inactive) each time. The GI50 in assay [7], in assay [8], in assay [9], in [10], in assay [11] and in assay [12] was > 100 µM (inactive) in each case. In addition, the GI50 in assay [13], in assay [14], in [15], in [16], in [17] and in assay [18] was > 100 µM (inactive) throughout. Further, in [19], the GI50 is > 100 µM (inactive).
As to `Clc1ccc(C2NN=C3c4ccccc4OCC32)cc1` (stereo not given), the GI50 in [1] was 5.41 µM (inactive); in assay [2], 14.9 µM (inactive); in [3], 3.15 µM (inactive); in assay [4], 6.71 µM (inactive); in assay [5], 19.6 µM (inactive); in [6] it was 3.2 µM (inactive). The GI50 in assay [7] was 3.64 µM (inactive); in assay [8], 8.02 µM (inactive); in [9], 2.39 µM (inactive); in assay [10], 2.38 µM (inactive); in [11] it was 0.83 µM (active); in assay [12], 3.15 µM (inactive). Also, the GI50 in assay [13] was 4.39 µM (inactive); in assay [14], 8.87 µM (inactive); in [15], 2.44 µM (inactive); in [16], 15.3 µM (inactive); in [17] it was 5.53 µM (inactive); in [18], 4.09 µM (inactive). Further, in assay [19], the GI50 was 9.46 µM (inactive).
As to `COc1cc2c(c(O)c1OC)CC1CCC(=O)N1C2c1cccc2ccccc12` (stereo not given), the GI50 in assay [1] was 31.6 µM (inactive); in [2], 29.3 µM (inactive); in assay [3] it was 0.813 µM (active); in [4], 20.8 µM (inactive); in assay [5], 14.1 µM (inactive); in assay [6], 24 µM (inactive). Moreover, the GI50 in assay [7] is 23.9 µM (inactive); in assay [8], 23 µM (inactive); in [9], 16.4 µM (inactive); in [10], 19.2 µM (inactive); in assay [11], 16.3 µM (inactive); in assay [12], 21.8 µM (inactive). Besides, the GI50 in assay [13] is 24 µM (inactive); in assay [14] it was 19.1 µM (inactive); in assay [15] it was 19.3 µM (inactive); in assay [16] it was 21.9 µM (inactive); in assay [17] it was 39 µM (inactive); in assay [18] it was 19.8 µM (inactive). For the same compound, the GI50 in [19] was 23.6 µM (inactive).
As for `O=C1C=CC2(O[C@H](C3CCCCC3)[C@@H](C3CCCCC3)O2)C(SC(=O)c2ccccc2)C1` (stereo not given in full), the GI50 is 6.07 µM (inactive) in assay [1]; 1.94 µM (inactive) in assay [2]; 1.79 µM (inactive) in [3]; 3.23 µM (inactive) in assay [4]; 8.39 µM (inactive) in assay [5]; 1.75 µM (inactive) in assay [6]. Besides, the GI50 in assay [7] was 6.98 µM (inactive); in assay [8] it was 1.41 µM (inactive); in assay [9], 1.39 µM (inactive); in assay [10], 1.62 µM (inactive); in assay [11], 1.78 µM (inactive); in [12], 3.66 µM (inactive). The GI50 in assay [13] is 2.47 µM (inactive); in [14] it was 1.88 µM (inactive); in assay [15], 0.968 µM (active); in assay [16] it was 0.347 µM (active); in assay [17] it was 7.24 µM (inactive); in [18] it was 1.91 µM (inactive). Besides, the GI50 in assay [19] was 7.05 µM (inactive).
Consider `CC(C)(C)c1cc(OCc2nnc3sc(Cc4ccccc4)nn23)c(Cl)cc1OCc1nnc2sc(Cc3ccccc3)nn12`, for which the GI50 in assay [1] was 28.8 µM (inactive); in assay [2], 24.9 µM (inactive); in [3], 23.8 µM (inactive); in assay [4], 46.6 µM (inactive); in [5] it was 15.8 µM (inactive); in [6], 22 µM (inactive). Also, the GI50 in [7] was 18.8 µM (inactive); in assay [8], 29.1 µM (inactive); in assay [9] it was 19.3 µM (inactive); in [10], 24.1 µM (inactive); in assay [11] it was 24.5 µM (inactive); in assay [12], 19.5 µM (inactive). The GI50 in [13] is 31.9 µM (inactive); in assay [14], 29 µM (inactive); in assay [15], 20.7 µM (inactive); in assay [16], 24.2 µM (inactive); in assay [17] it was 15.3 µM (inactive); in assay [18] it was 13.9 µM (inactive). In addition, the GI50 in [19] was 21.3 µM (inactive).
Turning to `CNC(=O)Nc1ccccc1`, the GI50 in assay [1], in assay [2], in [3], in [4], in [5] and in [6] was > 100 µM (inactive) each time. The GI50 in [7], in assay [8], in [9], in assay [10], in assay [11] and in assay [12] was > 100 µM (inactive) throughout. Moreover, the GI50 in assay [13] was > 100 µM (inactive); in assay [14], > 100 µM (inactive); in assay [15], > 100 µM (inactive); in [16], > 100 µM (inactive); in assay [17], > 74.6 µM (inactive); in assay [18] it was > 100 µM (inactive). For the same compound, in [19], the GI50 is > 100 µM (inactive).
Regarding `COc1cc2cc(C(=O)N3CC(CCl)c4ccc(O)cc43)[nH]c2c(OC)c1OC` (stereo not given), the GI50 is 0.000501 µM (active) in [1]; < 0.0001 µM (active) in assay [2]; 0.00647 µM (active) in [3]; 0.00363 µM (active) in assay [4]; 0.0292 µM (active) in assay [5]; 0.0198 µM (active) in assay [6]. Besides, the GI50 in [7] was 0.00507 µM (active); in assay [8], 0.00184 µM (active); in [9], 0.00196 µM (active); in assay [10], 0.00263 µM (active); in assay [11], < 0.01 µM (active); in assay [12] it was 0.00344 µM (active). Further, the GI50 was 0.00199 µM (active) in [13]; 0.129 µM (active) in assay [14]; 0.000556 µM (active) in [15]; 0.00196 µM (active) in [16]; 0.00628 µM (active) in assay [17]; 0.000791 µM (active) in assay [18]. Moreover, the GI50 in assay [19] was 0.0149 µM (active).
